Test results published in publication doi:10.1101/2023.12.04.569845, “Identification of 4-(6-((2-methoxyphenyl)amino)pyrazin-2-yl)benzoic acids as CSNK2A inhibitors with antiviral activity and improved selectivity over PIM3” (bioRxiv, 2023).
Where two headings read alike, the source gives them in different places.

What was measured:
Assay in all cases: biochemical
Design in all cases: Thermal shift (DSF, SYPRO Orange) Tm shift of recombinant kinase domains at 10 uM compound
FGFR2 = FGFR2 (Homo sapiens, UniProt P21802)
Description: (§1) S23 Thermal stability kinase selectivity. The assay was performed as previously described. 9,10 Briefly, recombinant protein kinase domains at a concentration of 2 μM were mixed with 10 μM compound in a buffer containing 20 mM HEPES, pH 7.5, and 500 mM NaCl. SYPRO Orange (5000×, Invitrogen) was added as a fluorescence probe (1 µl per mL). Subsequently, temperature-dependent protein unfolding profiles were measured using the QuantStudio™ 5 realtime PCR machine (Thermo Fisher). […] The temperature was raised with a step rate of 3°C per minute. Data points were analysed with the internal software (Thermal Shift SoftwareTM Version 1.4, Thermo Fisher) using the Boltzmann equation to determine the inflection point of the transition curve.

PLK4 = target: T1, PLK4 (Homo sapiens, UniProt O00444)
T1 sequence (O00444 1-970): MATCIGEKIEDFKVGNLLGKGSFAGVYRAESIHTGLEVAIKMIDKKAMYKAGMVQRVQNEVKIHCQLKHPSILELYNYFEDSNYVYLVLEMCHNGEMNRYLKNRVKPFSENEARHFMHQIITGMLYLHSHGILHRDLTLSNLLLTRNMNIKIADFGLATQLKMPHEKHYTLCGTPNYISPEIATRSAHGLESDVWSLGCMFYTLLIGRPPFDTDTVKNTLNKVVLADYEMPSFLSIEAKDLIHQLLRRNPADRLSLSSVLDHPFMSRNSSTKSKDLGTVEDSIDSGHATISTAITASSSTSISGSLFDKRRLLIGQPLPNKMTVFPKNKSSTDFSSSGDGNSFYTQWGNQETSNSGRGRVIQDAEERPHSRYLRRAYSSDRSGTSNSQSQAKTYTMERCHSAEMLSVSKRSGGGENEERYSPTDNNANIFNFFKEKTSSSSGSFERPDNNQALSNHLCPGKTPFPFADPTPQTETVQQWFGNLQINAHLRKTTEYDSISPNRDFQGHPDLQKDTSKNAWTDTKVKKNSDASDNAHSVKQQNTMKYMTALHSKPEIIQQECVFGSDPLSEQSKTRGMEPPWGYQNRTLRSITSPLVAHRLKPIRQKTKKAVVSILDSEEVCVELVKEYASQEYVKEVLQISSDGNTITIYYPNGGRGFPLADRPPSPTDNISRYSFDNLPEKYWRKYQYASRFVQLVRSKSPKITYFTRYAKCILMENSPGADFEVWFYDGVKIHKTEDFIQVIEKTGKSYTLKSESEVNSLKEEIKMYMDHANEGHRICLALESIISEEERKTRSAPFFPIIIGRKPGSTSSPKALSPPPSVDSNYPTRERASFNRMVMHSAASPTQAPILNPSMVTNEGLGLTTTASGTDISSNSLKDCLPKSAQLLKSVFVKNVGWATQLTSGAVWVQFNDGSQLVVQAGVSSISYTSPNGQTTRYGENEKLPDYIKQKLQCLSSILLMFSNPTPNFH
Description: as §1

CDKL1 = CDKL1 (Homo sapiens, UniProt Q00532)
Description: as §1

CAMK2D = CAMK2D (Homo sapiens, UniProt Q13557)
Description: as §1

MEK4 = target: T2, MEK4 (Homo sapiens, UniProt P45985)
T2 construct: gene MAP2K4; kinase domain
T2 sequence (P45985 1-399): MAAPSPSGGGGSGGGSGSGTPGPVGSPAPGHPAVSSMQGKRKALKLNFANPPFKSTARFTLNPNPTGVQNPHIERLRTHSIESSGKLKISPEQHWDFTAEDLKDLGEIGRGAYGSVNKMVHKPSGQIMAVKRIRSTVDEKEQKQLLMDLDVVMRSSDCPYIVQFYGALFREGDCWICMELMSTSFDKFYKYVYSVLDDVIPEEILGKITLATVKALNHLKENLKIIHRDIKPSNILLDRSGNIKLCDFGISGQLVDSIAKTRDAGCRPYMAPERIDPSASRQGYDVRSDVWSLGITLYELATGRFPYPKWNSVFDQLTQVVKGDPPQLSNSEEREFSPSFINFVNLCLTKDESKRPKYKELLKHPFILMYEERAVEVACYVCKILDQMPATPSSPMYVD
Description: as §1

MER = target: T3, MER (Homo sapiens, UniProt Q12866)
T3 construct: gene MERTK
T3 sequence (Q12866 1-999): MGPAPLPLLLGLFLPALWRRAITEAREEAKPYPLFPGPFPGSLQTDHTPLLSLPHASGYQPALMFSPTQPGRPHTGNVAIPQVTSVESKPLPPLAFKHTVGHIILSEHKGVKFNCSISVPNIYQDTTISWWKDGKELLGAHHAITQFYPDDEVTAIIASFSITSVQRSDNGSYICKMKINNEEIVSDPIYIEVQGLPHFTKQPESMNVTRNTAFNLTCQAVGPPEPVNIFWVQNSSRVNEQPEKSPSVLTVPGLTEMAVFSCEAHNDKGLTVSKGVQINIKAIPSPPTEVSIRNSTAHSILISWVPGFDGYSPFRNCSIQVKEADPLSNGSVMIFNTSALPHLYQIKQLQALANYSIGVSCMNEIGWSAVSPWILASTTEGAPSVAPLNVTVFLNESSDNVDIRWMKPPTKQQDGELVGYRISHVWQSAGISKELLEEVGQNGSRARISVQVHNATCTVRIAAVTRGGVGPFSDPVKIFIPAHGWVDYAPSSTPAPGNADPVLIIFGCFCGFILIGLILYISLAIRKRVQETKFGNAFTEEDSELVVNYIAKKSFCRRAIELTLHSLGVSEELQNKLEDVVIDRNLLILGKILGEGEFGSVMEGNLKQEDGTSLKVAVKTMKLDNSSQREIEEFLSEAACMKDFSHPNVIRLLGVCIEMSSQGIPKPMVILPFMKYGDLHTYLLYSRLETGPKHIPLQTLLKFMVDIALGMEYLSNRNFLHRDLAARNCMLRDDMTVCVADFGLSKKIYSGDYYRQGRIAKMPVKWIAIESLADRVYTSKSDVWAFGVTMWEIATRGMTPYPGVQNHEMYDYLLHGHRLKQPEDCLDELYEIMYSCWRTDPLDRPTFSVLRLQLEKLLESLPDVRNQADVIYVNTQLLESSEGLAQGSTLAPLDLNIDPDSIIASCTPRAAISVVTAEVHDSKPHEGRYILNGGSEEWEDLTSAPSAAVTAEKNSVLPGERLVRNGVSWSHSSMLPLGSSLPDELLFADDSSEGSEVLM
Description: as §1

FLT1 = FLT1 (Homo sapiens, UniProt P17948)
Chain of FLT1 (P17948 whole entry): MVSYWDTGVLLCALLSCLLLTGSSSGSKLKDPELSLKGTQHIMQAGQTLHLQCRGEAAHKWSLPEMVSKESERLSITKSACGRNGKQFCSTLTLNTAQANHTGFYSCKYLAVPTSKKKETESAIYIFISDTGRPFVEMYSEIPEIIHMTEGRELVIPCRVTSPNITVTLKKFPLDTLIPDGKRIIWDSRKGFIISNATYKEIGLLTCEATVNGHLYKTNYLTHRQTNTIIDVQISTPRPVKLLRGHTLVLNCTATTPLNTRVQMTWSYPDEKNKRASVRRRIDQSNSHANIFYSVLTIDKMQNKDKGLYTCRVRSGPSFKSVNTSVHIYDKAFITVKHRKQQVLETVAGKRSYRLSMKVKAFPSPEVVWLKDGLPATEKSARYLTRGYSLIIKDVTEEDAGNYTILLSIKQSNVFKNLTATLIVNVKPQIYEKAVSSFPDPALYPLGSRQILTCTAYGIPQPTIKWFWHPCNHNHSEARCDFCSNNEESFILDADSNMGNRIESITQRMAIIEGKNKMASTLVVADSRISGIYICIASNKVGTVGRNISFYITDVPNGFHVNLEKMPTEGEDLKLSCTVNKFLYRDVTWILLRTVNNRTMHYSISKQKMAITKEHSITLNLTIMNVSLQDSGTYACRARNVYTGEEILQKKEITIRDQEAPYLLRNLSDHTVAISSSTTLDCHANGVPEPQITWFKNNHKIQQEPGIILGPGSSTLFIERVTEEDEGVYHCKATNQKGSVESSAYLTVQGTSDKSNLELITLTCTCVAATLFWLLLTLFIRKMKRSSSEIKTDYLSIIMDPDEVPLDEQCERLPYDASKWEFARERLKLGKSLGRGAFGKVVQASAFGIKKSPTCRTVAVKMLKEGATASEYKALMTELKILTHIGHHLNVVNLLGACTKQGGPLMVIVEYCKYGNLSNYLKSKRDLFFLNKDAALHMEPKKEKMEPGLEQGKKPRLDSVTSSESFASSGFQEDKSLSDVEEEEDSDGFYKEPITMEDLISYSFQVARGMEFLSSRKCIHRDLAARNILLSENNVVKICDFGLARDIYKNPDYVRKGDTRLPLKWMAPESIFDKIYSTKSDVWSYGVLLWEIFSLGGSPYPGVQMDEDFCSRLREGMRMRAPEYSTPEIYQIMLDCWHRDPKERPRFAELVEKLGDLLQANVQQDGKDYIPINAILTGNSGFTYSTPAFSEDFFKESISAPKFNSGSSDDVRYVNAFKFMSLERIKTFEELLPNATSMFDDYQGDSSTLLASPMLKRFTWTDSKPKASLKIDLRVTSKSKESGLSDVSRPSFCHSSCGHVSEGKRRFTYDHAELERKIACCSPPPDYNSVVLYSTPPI
Description: as §1

Chain of CDKL1 (Q00532 whole entry): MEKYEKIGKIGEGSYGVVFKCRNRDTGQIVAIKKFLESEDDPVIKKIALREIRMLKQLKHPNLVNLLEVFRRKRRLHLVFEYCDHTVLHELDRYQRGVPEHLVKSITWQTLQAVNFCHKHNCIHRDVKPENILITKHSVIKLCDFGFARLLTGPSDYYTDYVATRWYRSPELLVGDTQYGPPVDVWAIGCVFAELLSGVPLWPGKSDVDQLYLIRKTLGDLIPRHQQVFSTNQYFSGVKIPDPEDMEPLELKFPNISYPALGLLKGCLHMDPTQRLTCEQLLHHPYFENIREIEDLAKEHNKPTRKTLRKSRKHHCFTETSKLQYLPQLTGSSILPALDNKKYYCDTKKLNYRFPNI
Chain of FGFR2 (P21802 whole entry): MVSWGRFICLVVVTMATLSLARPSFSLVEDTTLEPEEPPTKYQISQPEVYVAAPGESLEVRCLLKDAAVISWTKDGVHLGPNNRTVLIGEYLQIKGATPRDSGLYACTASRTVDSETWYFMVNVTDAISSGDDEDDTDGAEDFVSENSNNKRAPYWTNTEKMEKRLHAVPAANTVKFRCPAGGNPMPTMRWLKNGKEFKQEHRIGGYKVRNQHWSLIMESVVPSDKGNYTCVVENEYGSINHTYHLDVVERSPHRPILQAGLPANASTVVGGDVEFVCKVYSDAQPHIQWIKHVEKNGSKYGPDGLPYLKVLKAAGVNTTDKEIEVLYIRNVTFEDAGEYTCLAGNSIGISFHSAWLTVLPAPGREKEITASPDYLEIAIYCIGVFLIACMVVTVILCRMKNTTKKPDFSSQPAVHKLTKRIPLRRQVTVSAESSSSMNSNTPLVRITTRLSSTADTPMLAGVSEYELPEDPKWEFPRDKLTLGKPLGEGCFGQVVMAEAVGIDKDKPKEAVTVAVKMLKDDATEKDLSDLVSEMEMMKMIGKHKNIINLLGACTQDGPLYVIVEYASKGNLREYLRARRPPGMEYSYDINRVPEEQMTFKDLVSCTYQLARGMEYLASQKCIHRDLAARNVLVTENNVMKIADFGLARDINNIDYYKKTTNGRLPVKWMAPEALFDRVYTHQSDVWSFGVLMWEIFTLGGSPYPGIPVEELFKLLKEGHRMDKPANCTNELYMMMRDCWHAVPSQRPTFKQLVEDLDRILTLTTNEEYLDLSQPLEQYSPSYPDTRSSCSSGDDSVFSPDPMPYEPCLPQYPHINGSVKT
Chain of CAMK2D (Q13557 whole entry): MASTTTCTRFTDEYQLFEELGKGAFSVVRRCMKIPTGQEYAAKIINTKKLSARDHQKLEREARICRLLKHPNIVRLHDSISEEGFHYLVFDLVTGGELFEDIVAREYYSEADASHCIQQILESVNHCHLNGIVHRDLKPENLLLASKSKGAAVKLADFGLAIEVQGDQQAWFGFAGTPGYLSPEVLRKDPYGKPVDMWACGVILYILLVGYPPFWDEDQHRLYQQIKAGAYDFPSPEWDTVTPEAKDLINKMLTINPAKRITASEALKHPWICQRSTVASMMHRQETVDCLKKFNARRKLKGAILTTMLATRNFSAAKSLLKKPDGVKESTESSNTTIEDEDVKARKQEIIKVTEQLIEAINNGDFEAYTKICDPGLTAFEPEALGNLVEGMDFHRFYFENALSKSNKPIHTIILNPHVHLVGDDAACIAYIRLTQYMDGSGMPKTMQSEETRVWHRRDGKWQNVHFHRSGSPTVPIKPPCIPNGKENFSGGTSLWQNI

## CC(C)Nc1ccc2cnn(-c3cncc(-c4ccc(C(=O)O)cc4)n3)c2c1 [compound 2, 2]
FGFR2; read-out: 2
  ΔTm at 10 µM: 0 °C
PLK4; read-out: 2
  ΔTm at 10 µM: 11 °C
CDKL1; read-out: 2
  ΔTm at 10 µM: 2 °C
CAMK2D; read-out: 2
  ΔTm at 10 µM: 3 °C
MEK4; read-out: 2
  ΔTm at 10 µM: 5 °C
MER; read-out: 2
  ΔTm at 10 µM: 3 °C
FLT1; read-out: 2
  ΔTm at 10 µM: 7 °C

## COc1ccc(OC(C)C)cc1Nc1cncc(-c2ccc(C(=O)O)cc2)n1 [7c]
FGFR2; read-out: 7c
  ΔTm at 10 µM: 0 °C
PLK4; read-out: 7c
  ΔTm at 10 µM: 6 °C
CDKL1; read-out: 7c
  ΔTm at 10 µM: 1 °C
CAMK2D; read-out: 7c
  ΔTm at 10 µM: 0 °C
MEK4; read-out: 7c
  ΔTm at 10 µM: 2 °C
MER; read-out: 7c
  ΔTm at 10 µM: 3 °C
FLT1; read-out: 7c
  ΔTm at 10 µM: 5 °C

## CC(C)Oc1ccc2ccn(-c3cncc(-c4ccc(C(=O)O)cc4)n3)c2c1 [6c]
FGFR2; read-out: 6c
  ΔTm at 10 µM: 0 °C
PLK4; read-out: 6c
  ΔTm at 10 µM: 10 °C
CDKL1; read-out: 6c
  ΔTm at 10 µM: 3 °C
CAMK2D; read-out: 6c
  ΔTm at 10 µM: 3 °C
MEK4; read-out: 6c
  ΔTm at 10 µM: 9 °C
MER; read-out: 6c
  ΔTm at 10 µM: 3 °C
FLT1; read-out: 6c
  ΔTm at 10 µM: 7 °C
